Test results: patent US20060178307A1, “Modulation of NMDA receptor currents via orexin receptor and/or CRF receptor” (priority 2005, published 2006)
Entries after “also recorded” stand apart in the source; their conditions may differ. Where no end group is shown, it is not given here.

How the values were obtained:
[1] = tested on: NMDAR-mediated EPSCs in VTA dopamine neurons; assay: Evoked NMDAR-mediated EPSCs, whole-cell voltage clamp at +40 mV, VTA neurons in midbrain slices; type: cell-based, rat; settings: for effect on orexin A-mediated potentiation of NMDAR EPSCs: antagonist 1 μM, n=8 (FIG. 1C)
Protocol: Excitatory postsynaptic currents (EPSCs) were recorded from VTA neurons in rat midbrain slices. EPSCs were evoked while holding neurons in voltage clamp at +40 mV. Measurements were taken 20 ms after the stimulus artifact, a time point at which the glutamatergic EPSC is mediated purely by NMDARs.
The patch pipette was loaded with the PLC inhibitor, U-73122 (1 μM, FIG. 2A, C, n=6) or the PKC inhibitor, chelerythrin (1 μM, FIG. 1A, B, n=6). […] Next, the protein kinase A inhibitor, PKI (20 μM, FIG. 2A, F, n=8) or Rp-cAMPs, a blocker of cAMP (100 μM, FIG. 2A, E, n=5) was added to the patch pipette.
Activation of PKC is implicated in NMDAR-dependent long-term potentiation (Malinow et al., 1989) and it modulates NMDAR trafficking to the membrane (Lan et al., 2001; Scott et al., 2001; Fong et al., 2002). NMDARs can translocate from intracellular or extrasynaptic pools to synaptic sites (Lan et al., 2001; Tovar and Westbrook, 2002). […] In a separate group of slices, orexin A (100 nM, n=6) was applied for 5 min during the washout period.
All of the electrophysiological recordings were performed in rats ranging from P21 to P30. Briefly, rats were anesthetized with halothane and sacrificed. Horizontal sections of the VTA ([…]) were prepared with a vibratome (Leica, Nussloch, Germany). Slices were placed in a holding chamber and allowed to recover for at least 1 hour before being placed in the recording chamber and superfused with bicarbonate-buffered solution (ACSF) saturated with 95% O2/5% CO2 and containing (in mM): 119 NaCl, 1.6 KCl, 1.0 NaH2PO4, 1.3 MgCl2, 2.5 CaCl2, 26.2 NaHCO3 and 11 glucose (at 32-34° C.). Picrotoxin (100 μM) was added to block GABAA receptor-mediated inhibitory postsynaptic currents. Cells were visualized using infrared differential interference contrast video microscopy. Whole-cell voltage clamp recordings were made using an Axopatch 1D amplifier (Axon Instruments, Union City, Calif.). Electrodes (2.8-4.0 MΩ) contained (in mM): 120 Cesium Methansulfonate, 20 HEPES, 0.4 EGTA, 2.8 NaCl, 5 TEA-Cl, 2.5 MgATP, and 0.25 NaGTP, pH 7.2-7.3 (270-285 mOsm). Series resistance (10-40 MΩ) and input resistance were monitored on-line with a 4-mV depolarizing step (50 ms) given just after every afferent stimulus. Dopaminergic VTA neurons were identified by the presence of a large Ih current (Lacey et al., 1990; Johnson and North, 1992) and, in some cases, tyrosine hydroxylase labeling. A bipolar stimulating electrode was placed 100-300 μm rostral to the recording electrode and was used to stimulate excitatory afferents at 0.1 Hz. Neurons were voltage-clamped at −70 mV and +40 mV to record AMPAR- and NMDAR-mediated EPSCs.

[2] = tested on: AMPAR/NMDAR ratio of EPSCs in VTA dopamine cells; assay: AMPAR/NMDAR ratio after 5-min bath application to VTA slices; type: cell-based, rat; settings: orexin A 100 nM 5 min, n=8
Protocol: The next study investigated whether orexin signaling in the VTA is required for the long-term plasticity associated with the development of behavioral sensitization. Long-term synaptic plasticity at excitatory synapses on VTA neurons was examined 24 hr after a 5-day treatment of cocaine (15 mg/kg) or saline (0.9%), a time course shown to induce long-lasting locomotor sensitization to cocaine (Thomas et al., 2001), with or without the OXR1 antagonist, SB 334867 (10 mg/kg, FIG. 5). To assay for synaptic plasticity, the relative contributions of AMPARs and NMDARs to EPSCs recorded in VTA dopamine cells were compared. Consistent with the potentiation observed following acute and 7-day cocaine treatments (Borgland et al., 2004), 5-day treatment with cocaine potentiated the AMPAR/NMDAR ratio compared to saline controls (FIG. 5A, saline: 0.4±0.07, n=4; cocaine: 0.8±0.1, n=4, p<0.05). […]
To calculate the AMPAR/NMDAR ratio, an average of 12 EPSCs at +40 mV was computed before and after application of the NMDAR blocker, AP5 (50 μM) for 5 min. NMDAR responses were calculated by subtracting the average response in the presence of AP5 (AMPAR only) from that seen in its absence; the peak of the AMPAR EPSC was divided by the peak of the NMDAR EPSC to yield an AMPAR/NMDAR ratio.

[3] = orexin A 100 nM in the presence of ifenprodil 3 μM, n=6

Compound: Cc1nc2ccc(NC(=O)Nc3ccnc4cccnc34)cc2o1.Cl [SB 334867, 1-(2-methylbenzoxazol-6-yl)-3-[1,5]naphthyridin-4-yl urea hydrochloride]
- effect on orexin A-mediated potentiation of NMDAR EPSCs ([1]; hydrochloride): significantly inhibited
- effect on orexin A-mediated potentiation of NMDAR EPSCs ([1]; listed as SB 334857, hydrochloride): blocked

Compound: orexin A: neuropeptide synthesized in neurons of the LH; orexin receptor agonist selective for the OXR1 receptor (QPLPDCCRQKTCSCRLYELLHGAGNHAAGILTL; ends and bridges not checked; cysteine pairing not given here; UniProt O43612 34-66, looked up)
- response of neurons that did not express TH ([1]; 2 TH-negative neurons): neither responded
- NMDAR eEPSCs potentiated to a maximum of ([1]; 5 min co-application of orexin A 1 nM with CRF 10 nM, n=7): 123±12%
- NMDAR EPSC before orexin A ([1]; NR2A/C (NVP-AAM077 0.4 μM) and NR2B (ifenprodil 3 μM) inhibitors co-applied, n=6): 32±5%
- TH-containing neurons with potentiated NMDAR responses ([1]; biocytin-filled, tyrosine hydroxylase positive neurons): 7/8
- potentiation of NMDAR-mediated EPSCs ([1]; orexin A 1 nM (FIG. 1B), n=6): 5±1%
- potentiation of NMDARs ([1]; orexin A 1 nM (FIG. 14A), n=6): 5.7±1.6%
- potentiation of NMDAR-mediated EPSCs ([1]; orexin A 10 nM (FIG. 1B), n=6): 18±3%
- maximum current after MK-801 washout ([1]; orexin A 100 nM 5 min during washout of MK-801 10 μM, n=6): 40±17%
- potentiation of NMDAR-mediated EPSCs ([1]; orexin A 100 nM (FIG. 1B), n=6): 42±5%
- orexin A potentiation of NMDAR EPSCs ([1]; orexin A 100 nM after NVP-AAM077 0.4 μM and ifenprodil 3 μM co-application): largely inhibited; also recorded: blocked
- duration of potentiation after washout ([1]; orexin A 100 nM applied for 30 min): > 40 min
- potentiation of NMDAR EPSCs ([1]; orexin A 100 nM applied for 30 min, n=6): 74±16%
- potentiation of NMDAR-mediated EPSCs ([1]; orexin A 100 nM bath application 5 min (FIG. 1A), n=12): 49±9%
- maximum potentiation of NMDAR EPSCs ([1]; orexin A 100 nM in the presence of NVP-AAM077 0.4 μM, n=7): 20±6%
- effect on remaining current ([1]; orexin A 100 nM in the presence of NVP-AAM077, ifenprodil and PPDA): did not alter
- maximum amplitude, of baseline EPSCs [1, 3]: 107±16%
- potentiation of NMDAR-mediated EPSCs [1, 3]: 36%
- NMDAR EPSC after orexin A ([1]; orexin A 100 nM with NVP-AAM077 0.4 μM and ifenprodil 3 μM co-applied, n=6): 45±12%
- neurons with potentiation greater than 10% / neurons recorded ([1]; orexin A 100 nM, 5 min): 10/12
- maximum current after MK-801 and NMDA washout ([1]; orexin A 5 min during washout of MK-801 20 μM + NMDA 500 μM, n=6): 20±2%
- maximum potentiation of NMDARs ([1]; orexin A in the presence of Zn2+ (300 nM), n=5): 14±4%
- AMPAR/NMDAR ratio ([2]; 15 min after treatment): 0.29±0.04
- AMPAR/NMDAR ratio ([2]; after 3-4 hours): 0.75±0.1
